Source: patent US20190230932A1, “Synergistic Combinations Of Monochloramine And Organic Acid, And Methods Of Using The Same For Microbial Control” (Buckman Laboratories International, Inc., priority 2018, published 2019)

Key:
[1] = test system: Pseudomonas bacterial cells; assay: Checkerboard of monochloramine and citric acid, bacterial growth in corn mash nutrient broth, 24-well plate (Example 1); as to Bacterial growth at 12 hr.: key: −−−: No further growth observed; +++: Growth observed; type: cell-based; parameters: Bacterial growth at 12 hr. / Bacterial growth at 14 hr.: key: −−−: No further growth observed; +++: Growth observed; conditions: for Bacterial growth at 12 hr. / Bacterial growth at 14 hr.: 37° C., 600 nm
Protocol: Laboratory experiments were performed to study the microbicidal efficacy of a combination of monochloramine with citric acid.
Pseudomonas bacterial cells were grown in nutrient broth media. The nutrient broth media comprised corn mash (35 wt %) and water. Appropriate amount of culture cells, monochloramine and/or citric acid were transferred into 24-well plate and incubated at 37° C. The 24-well plate layout held samples which contained monochloramine added in concentrations (ppm) of 0.00, 12.50, 50.00 and 100.00 in different rows of well samples, […], in different columns of well samples, in a checkerboard pattern, such as shown in Tables 1 and 2. Bacterial growth was monitored for each sample at 12 hours and 14 hours. Measurement was qualitative based upon measurement in a plate reader. A UV-VIS spectrophotometer was used at measurement wavelength 600 nm.

[2] = test system: Pseudomonas bacterial cells; assay: Checkerboard of monochloramine and citric acid, OD 600 nm growth curves over 48 hours (Example 2, FIGS. 2-5); type: cell-based
Protocol: In this study, Pseudomonas bacterial cells were grown in nutrient broth media. The nutrient broth media comprised corn mash (35 wt %) and water. Appropriate amount of culture cells, monochloramine and/or citric acid were transferred into 24-well plate and incubated at 37° C. for 48 hrs. in a plate reader. The 24-well plate layout held samples which contained monochloramine added in concentrations (ppm) of 0, 12.5, 50 and 100 ppm in different rows of well samples, and citric acid added in concentrations (ppm) of 0, 500, 3,000, 7,000, 10,000, and 20,000 in different columns of well samples, in a checkerboard pattern. Bacterial growth was monitored for each sample using a UV-VIS spectrophotometer to measure optical density (OD) (at measurement wavelength 600 nm) for the samples for 48 hours. The growth curves from the data are plotted in FIGS. 2-5.

Q: `NCl` [Oxamine (MCA), monochloramine] was tested. Which “inhibition of bacterial growth” value ([1]; 50 ppm monochloramine added individually) did it give?
A: not inhibitory to bacterial growth

Q: What about the “control of bacterial growth” value ([1]; 100 ppm MCA alone) of the same compound?
A: sufficient to control

Q: And the “Bacterial growth at 12 hr.” value ([1]; MCA 12.5 ppm, CA 0 ppm)?
A: +++

Q: And the “Bacterial growth at 14 hr.” value ([1]; MCA 12.5 ppm, CA 0 ppm)?
A: +++

Q: And the “Bacterial growth at 12 hr.” value ([1]; MCA 50 ppm, CA 0 ppm)?
A: +++

Q: What about the “Bacterial growth at 14 hr.” value ([1]; MCA 50 ppm, CA 0 ppm) of the same compound?
A: +++

Q: What about the “control of bacteria growth (OD 600 nm growth curve)” value (“control of bacteria growth” below) ([2]; 12.5 ppm monochloramine alone, FIG. 3) of the same compound?
A: no control of bacteria growth

Q: What about the “control of bacteria growth” value ([2]; 50 ppm monochloramine alone, FIG. 4) of the same compound?
A: cells growth was delayed

Q: And the “control of bacteria growth” value ([2]; 100 ppm monochloramine without citric acid, FIG. 5)?
A: total inhibition of bacteria growth

Q: What does the source list for `O=C(O)CC(O)(CC(=O)O)C(=O)O` [Citric acid (CA), citric acid]?
A: inhibition of bacterial growth ([1]; 10,000 ppm citric acid added individually (no MCA)): not inhibitory to bacterial growth; Bacterial growth at 12 hr. ([1]; MCA 0 ppm, CA 500 ppm): +++; Bacterial growth at 14 hr. ([1]; MCA 0 ppm, CA 500 ppm): +++; Bacterial growth at 12 hr. ([1]; MCA 0 ppm, CA 1000 ppm): +++; Bacterial growth at 14 hr. ([1]; MCA 0 ppm, CA 1000 ppm): +++; Bacterial growth at 12 hr. ([1]; MCA 0 ppm, CA 3000 ppm): +++; Bacterial growth at 14 hr. ([1]; MCA 0 ppm, CA 3000 ppm): +++; Bacterial growth at 12 hr. ([1]; MCA 0 ppm, CA 7000 ppm): +++; Bacterial growth at 14 hr. ([1]; MCA 0 ppm, CA 7000 ppm): +++; Bacterial growth at 12 hr. ([1]; MCA 0 ppm, CA 10000 ppm): +++; Bacterial growth at 14 hr. ([1]; MCA 0 ppm, CA 10000 ppm): +++; control of bacteria growth (OD 600 nm growth curve) ([2]; citric acid alone, 500 to 20,000 ppm, no MCA, FIG. 2): not all of the evaluated citric acid concentrations controlled bacteria growth
